Changes are numbered by the printed parent chain. Where two headings read alike, the source gives them in different places.
Experiments:
rat M1 D105A receptor = target: T1, rat M1 D105A receptor (Rattus norvegicus, UniProt P08482, D105A); assay: R-SAT functional assay, D105A mutant; format: cell-based; settings: Table 3, maximum response
T1 construct: expressed in transfected cells; host or cells: NIH-3T3
T1 sequence (P08482 1-460 D105A): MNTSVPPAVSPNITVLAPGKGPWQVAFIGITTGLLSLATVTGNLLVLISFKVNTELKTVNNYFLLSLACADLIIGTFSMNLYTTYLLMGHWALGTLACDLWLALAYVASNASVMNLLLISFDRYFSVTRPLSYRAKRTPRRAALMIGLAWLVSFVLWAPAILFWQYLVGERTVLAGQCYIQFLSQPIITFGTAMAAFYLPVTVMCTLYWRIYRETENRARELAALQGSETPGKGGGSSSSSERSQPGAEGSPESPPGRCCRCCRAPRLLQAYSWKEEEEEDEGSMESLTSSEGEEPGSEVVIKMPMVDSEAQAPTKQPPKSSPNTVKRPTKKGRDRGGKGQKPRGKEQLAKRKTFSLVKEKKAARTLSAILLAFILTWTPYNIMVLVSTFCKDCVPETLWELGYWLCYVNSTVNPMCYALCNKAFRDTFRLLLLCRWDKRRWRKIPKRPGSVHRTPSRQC
Protocol: Cells are co-transfected for 18 h with DMEM containing 0.08 micrograms/ml of an expression vector for the expression of the mutant receptor and 0.3 micrograms/ml pSI-Bgal (Promega, Madison Wis.), and 0.5% v/v Polyfect (Qiagen, Valencia Calif.), as recommended by the manufacturer. On day three, the medium is replaced with DMEM containing 1% PSG, 0.5% calf serum, 2% cyto-sf3 (Kemp Biotechnologies, Frederick, Md.), and varying concentrations of the compounds to be tested. Cells are grown in a humidified atmosphere with 5% ambient CO2 for 5 days. The media is removed from the plates, and beta-galactosidase activity is measured by the addition of o-nitrophenyl -d-galactopyranoside in phosphate-buffered saline with 5% Nonidet P-40. […] The following equation is fitted to the data using GraphPad Prism software (San Diego, Calif.):
NIH-3T3 cells were grown in 96-well tissue culture plates to 70 to 80% confluence in Dulbecco's modified essential media (DMEM) supplemented with 100 units/ml penicillin, 100 micrograms/ml streptomycin, 0.3 mg/ml L-glutamine (1% PSG, GIBCO) and 10% calf serum (Sigma-Aldrich). Cells were transfected for 18 h with DMEM containing 0.08 micrograms/ml receptor DNA and 0.3 micrograms/ml pSI-Bgal (Promega, Madison Wis.), 0.5% v/v Polyfect (Qiagen, Valencia Calif.). Medium was replaced with DMEM containing 1% PSG, 0.5% calf serum, 2% cyto-sf3 (Kemp Biotechnologies, Frederick, Md.), and varying concentrations of ligand. […] Cells were grown in a humidified atmosphere with 5% ambient CO2 for 5 days. Medium was removed from the plates, and beta-galactosidase activity was measured by the addition of o-nitrophenyl -d-galactopyranoside in phosphate-buffered saline with 5% Nonidet P-40.

[1] = target: T2, rat M1 wild-type receptor (RM1) (Rattus norvegicus, UniProt P08482); assay: ^3H-NMS radioligand binding, wild-type; settings: for Shift: Ki divided by Ki for wild-type (reference)
T2 construct: expressed in transfected cells
T2 sequence (P08482 1-460): T1 sequence (P08482 1-460 D105A) with A105D
Protocol: Briefly, cell homogenates are prepared from cells transiently or stably expressing wild type or mutant receptors. For transiently transfected cells, HEK cells are transfected with receptor of interest and cells harvested 48 hours post transfection. Cells expressing the receptor, stably or transiently, are harvested using phosphate buffered saline containing 5 mM EDTA, cells centrifuged at low speed and pellet re-suspended in binding buffer. Cell suspension is polytroned and centrifuged at 15,000×g. The pellet is resuspended in binding buffer and centrifugation repeated two more times. The washed cell homogenates are used for the competition binding assays. Competition binding assays are carried out in the presence of fixed amount of cell homogenate, fixed concentration of radioactively labeled orthosteric or allosteric ligand and varying concentrations of the cal under study using appropriate buffer. Incubations are carried out at room temperature for 2 hours. Incubations are terminated by filtration onto GF/B filters using Packard cell harvester followed by 3 washes with ice-cold buffer. Radioactivity retained on the filters is quantitated using Packard Top Count using Microscint 20 scintillation fluid. […] The membranes prepared above are incubated with a labeled ligand in 25 mM sodium phosphate, 5 mM magnesium chloride, 0.01% BSA two hours at room temperature. The binding reaction is stopped by rapid filtration onto GF/B filters. […] The pKd values (pKd=−log Kd) of the labeled ligand are calculated.
Radioligand binding assays were carried out in 25 mM sodium phosphate, 5 mM magnesium chloride, 0.01% BSA. Incubations were for two hours at room temperature, and reactions were stopped by rapid filtration onto GF/B filters.

[2] = target: T3, CHO-hM1 cell membranes (muscarinic M1 receptor) (Homo sapiens, UniProt P11229); assay: ^3H-NMS dissociation rate assay; format: binding; settings: for koff: read-out: koff of ^3H-NMS in the presence of the ligand
T3 construct: expressed in transfected cells; host or cells: CHO-hM1
T3 sequence (P11229 1-460): T1 sequence (P08482 1-460 D105A) with V5A, A105D, S254T, S309P, K320R, G337A, V413I
Protocol: Approximately 10 μg protein was added per well in the assay.

[3] = atropine-induced dissociation, result in words

Eff (%) (rat M1 D105A receptor) | IC50 [1] [µM] | Shift [1] | effect on dissociation rate of ^3H-NMS [2, 3] | koff [2] [s⁻¹] | Compound | effect on dissociation rate of ^3H-NMS [2]
no resp. | 1.26 | 1 | significantly retarded | 0.0015 | CCCCC1CCN(CCCN2C(=O)COc3cc(F)ccc32)CC1 [AC-260584, 4-[3-(4-Butyl-piperidin-1-yl)-propyl]-7-fluoro-4H-benzo [1,4]oxazin-3-one] | –
no resp. | 0.158 | 1 | did not significantly retard | 0.00338 | Clc1ccc2c(c1)N=C(N1CCNCC1)c1ccccc1N2 [NDMC, 8-chloro-11-(1-piperazinyl)-5H-dibenzo [b,e] [1,4] diazepine] | –

Compound | Eff (%) (rat M1 D105A receptor) | IC50 [1] [µM] | Shift [1] | effect on dissociation rate of ^3H-NMS [2, 3] | koff [2] [s⁻¹] | effect on dissociation rate of ^3H-NMS [2]
CCCCC1CCN(CCCC(=O)c2ccccc2C)CC1 [AC-42, 4-n-butyl-1-[4-(2-methylphenyl)-4-oxo-1-butyl] piperidine hydrogen chloride] | no resp. | 5.01 | 1 | – | 0.00175 | significantly retarded

Reference: patent publication US20090209525A1, “ENABLING METHODS TO IDENTIFY ALLOSTERIC MODULATORS OF RECEPTOR ACTIVITY” (priority 2006, published 2009)
